The values below are quoted from earlier work in US20110195946A1, “HIGH SOLID D[…]” (priority 2008, published 2011).

By LD50 is commonly meant the dose at which mortality reaches 50%.

Structures are written as SMILES.

For series [1] the following is noted: acute oral mammalian toxicity.
The conditions of series [2]: acute inhalation toxicity.

Consider `N#Cc1c(-c2ccc(Cl)cc2)[nH]c(C(F)(F)F)c1Br` [Tralopyril, 4-bromo-2-(4-chlorophenyl)-5-(trifluoromethyl)-1H-pyrrole-3-carbonitrile], for which the LD50 in series [1] is listed as 28.7 mg/kg.

On to `[O-][n+]1ccccc1[S][Zn][S]c1cccc[n+]1[O-]` [zinc pyrithione, bis(2-pyridylthio)zinc 1,1′ dioxide], for which the “LC50 (4 h)” value in series [2] was 1.03 µg/mL.
